Assay results reported in patent publication US8859235B2, “Methods in cell cultures, and related inventions, employing certain additives” (priority 2009, dated 2014).

Key:
E. coli HM125 = assay: Growth and expression of FimH-CRD in E. coli HM125, shake flask cultivation in mineral medium; assay type: cell-based, Escherichia coli; settings: for mg FimH/g cell: control 0.81; for FimH / Cell pellet: mean of triplicate; for FimH: control 6.48 ± 0.36; for Cell pellet: control 7.99 ± 0.25
Excerpt: Standard molecular techniques are used for the cloning of the FimH carbohydrate recognition domain (FimH-CRD). The plasmid pfimHs-trc, encoding FimH lectin domain (1-156 amino acids M. Vetsch P et. al. 2002—J. Mol. Biol. 322: 827-840), is kindly provided by R. Glockshuber (ETH Zürich, Switzerland). The FimH-CRD fragment is amplified by polymerase chain reaction using specific forward primer containing the restriction site NdeI and a specific reverse primer containing the thrombin cleavage site and the restriction site XhoI, respectively. The insert is ligated into the corresponding cloning site in pET21b. The resulting contrast is named pET21b-FimH-CRD.
Precultures are prepared in 25 mL sterile LB medium [Tryptone (10.0 g/L), yeast extract (5.0 g/L), NaCl (10.0 g/L), ampicillin 100 (mg/L); adjusted to pH 7.0 with NaOH]. Cultures are inoculated with a glycerol stock stored at −80° C. of the protease deficient strain E. coli HM125 (Meerman H J & Georgiou G. 1994. Biotechnology (NY) 2, 1107-1110) harboring the plasmid pET21b-FimH-CRD Vector. Precultures are incubated at 37° C. for 10-12 h. Experimental cultures are performed in a volume of 500 mL of modified M9 medium [Na2HPO4×7H2O (12.8 g/L), KH2PO4 (3 g/L), NaCl (0.5 g/L), NH4Cl (1 g/L), D-glucose (4 g/L), MgSO4 (0.12 g/L), CaCl2 (0.01 g/L) and vitamins (in mg/L): riboflavin (0.1), choline chloride (1), folic Acid (1), niacinamide (1), p-amino benzoic acid (1), pyridoxal-HCl (1), thiamine-HCl (1), myo-lnositol (2)] supplemented with 100 mg/L ampicillin. Cultures are inoculated with 5 mL of the preoculture and grown at 30° C. and 150 rpm) until the optical density at 600 nm (0D600) reached 0.8-1.0. Then 1 mM IPTG and the stabilizer(s) (obligatory additive) according to the invention are added to final concentrations of 5, 10 and 20 mM as indicated from sterile stock solutions and the cultures are grown overnight. Then the cells are cooled on ice for 5 min and harvested by centrifugation at 5′000 rpm for 20 min at 4° C. Cell are harvested by centrifugation and biomass is quantified by weighing the wet cell pellets. The pellet is suspended in a cold solution of 50 mM Tris-HCl, pH 7.5, 150 mM NaCl, 5 mM EDTA, 1 mg/mL polymyxin B sulfate and stirred for two hours at 4° C. After centrifugation at 11′000 rpm for 20 min at 4° C., the supernatant (periplasmic extract) is dialyzed overnight against 50 mM NaH2PO4, 300 mM NaCl and 10 mM imidazole, pH 8 (binding buffer) and applied to a Ni-NTA column (Sigma, Buchs, Switzerland) attached to a BioLogic fast protein liquid chromatography system (BioRad, Reinach BL, Switzerland). The column is washed with binding buffer and afterwards eluted with 50 mM NaH2PO4, 300 mM NaCl and 250 mM imidazole, pH 8 (elution buffer). Fractions containing FimH-CRD-Th-6H is are pooled and dialyzed against water and then against 20 mM HEPES, 150 mM NaCl and 1 mM CaCl2, pH 7.4.
The concentration of protein is determined by HPLC method (Agilent 1100/1200 series) using BSA as standard (Sigma). The column Poros R1/10 10 μm (100×2 mm, Morvay Analytik) is kept at 60° C.; eluents are A: 0.1% trifluoroacetic acid (TFA) in H2O and B: 90% MeCN+0.09% TFA. A gradient of 20% B to 90% B is run within 20 min at a flow rate of 0.2 mL/min. The detection is monitored at 210 nm. Results are compiled in the following tables 5 and 6.

E. coli BL21 = assay: Growth and GFPuv expression in E. coli BL21 (DE3), shake flask batch culture in complex medium; assay type: cell-based, Escherichia coli
Method: (§1) The measurement of GFP expression by whole cell fluorescence measurements follows the procedure of Scholz et al. (Eur. J. Biochem., 2000,267, 1565-1570). Frozen cell pellets are thawed, resuspended in 1 mL PBS [NaCl (8 g/L), KCl (0.2), of Na2HPO4 (1.44), KH2PO4 (0.24), adjusted to pH 7.4] and subsequently diluted to an optical density of 0.1. GFP fluorescence of whole cells is measured in a Eclipse Fluorometer (Varian) with an excitation wavelength of 400 nm and an emission wavelength of 512 nm. Specific relative fluorescence [RFU/OD600] is calculated by dividing the relative fluorescence emmision units by the optical density of the suspension at 600 nm.
Precultures are prepared in 250 mL baffled shake flasks containing 25 mL sterile LB medium [Tryptone (10.0 g/L), yeast extract (5.0), NaCl (10.0), kanamycin 30 (mg/L); adjusted to pH 7.0 with NaOH]. Cultures are inoculated with 250 μL of a glycerol stock stored at −80° C. of E. coli BL21 [Novagen, Madison, USA; Genotype: E ompT hsdSB (rB^− mB^−) gal dcm (DE3)] harboring the plasmid pET28a-GFPuv which is obtained by inserting the GFPuv gene (isolated from pBAD-GFPuv through PCR) into the EcoRI site of pET28a (Novagen, Madison, USA) which placed the GFPuv gene under the control of the T7/Lac promotor system. Precultures are incubated at 37° C. for 10-12 h.
Experimental cultures are performed in a volume of 25 mL of the above described medium in 250 mL baffled shake flasks. Stabilizers are added to a final concentration of 5 mM as indicated from sterile stock solutions. Cultures are started by inoculating with the preculture to an OD600 at 600 nm of 0.25. Samples are taken for OD600 measurements. Cultures are induced by adding IPTG (Isopropyl-β-D-thiogalactoside) to a final concentration of 0.5 mM when the OD600 reaches 0.5. Samples of 1 mL are taken after induction for OD600 reading and GFP quantification. For GFP quantification 1 mL of the culture is harvested after 2-4 h and after 20 h after induction. Cells are collected by centrifugation at 16 000 g and the cell pellet is stored at −20° C. for further analysis. Analysis of in vivo GFP fluorescence is performed by the method described in Example 1.

E. coli JM109 [1] = assay: Growth and GFP expression in high cell density fedbatch cultivation of E. coli JM109 in mineral medium; assay type: cell-based, Escherichia coli; settings: for Optical density Value / GFP expression (RFU/OD600) Value: additive 5 mM; for GFP expression Factor / Optical density Factor: relative to control = 1
Method: as §1
A first preculture of E. coli JM109 harboring the plasmid pBAD-GFPuv is initiated from glycerol stocks stored at −80° C. in 3 mL of LB medium containing 0.01% (v/v) Antifoam A (Fluka). After growth for 10-12 h it is used to seed 2×100 mL of mineral medium (as described in Example 1) containing 0.01% Antifoam A (silicone fluid containing a suspension of finely powdered silica to enhance its defoaming efficiency; Dow Corning Corporation, Midland, Mich., USA), in 1 L baffled shake flasks. After 10-12 h this culture is centrifuged resuspended in 50 mL mineral medium and is used to inoculate the main culture.
Cultivation is performed in BioFlow110 bioreactors (Total volume 2.2 L; New Brunswick Scientific, Nürtingen, Germany) filled with 1 L of mineral medium plus 0.01% (v/v) Antifoam A for the batch phase. Reactors are equipped with pH, pO2 and foam probes, mass flow controllers to control gas flow and ratio of air and pure oxygen and pumps for automated dosage of base (14% [v/v] aqueous NH3), antifoam (25% [v/v] Antifoam A) and nutrient feed solution. The agitation is set to 500 rpm and air is supplied at a gas flow rate of 2 L/min. The fedbatch culture is incoculated to an OD600 of 0.25-0.5 and allowed to grow unlimited with a specific growth rate of ˜0.5 h^−1. Growth is monitored by measuring OD600. When the disolved oxygen concentration decreases to 30%, automated adjustment of the air:oxygen ratio in the gas mix is started to control dO2 to 30% using a PID loop. When the gas mix consisted of 100% oxygen a further increase in oxygen transfer is achieved through increasing the agitation rate up to a maximum level of 1200 rpm. When glycerol in the batch medium is completely consumed, as indicated by a distinct drop of pure oxygen in the gas mix, feeding solutions (first containing 70 g/L glycerol and later as cell density increased 200 g/L glycerol in mineral medium) are pumped into the reactor by a predefined exponential fed scheme. The feeding rate is calculated to allow the cells to grow at a growth rate of approximately 0.15 h^−1. During the feeding phase dO2 is also kept at 30%. 3-6 h after starting the feeding protein expression is induced by the addition of 0.2 (w/v) L-arabinose. Samples are taken every hour for OD600 reading and to obtain cell pellets which are stored at −20° C. for further analysis. Analysis of in vivo GFP fluorescence is performed by the method described in Example 1.

E. coli JM109 [2] = assay: Growth and GFPuv expression in E. coli JM109, shake flask cultivation in mineral medium; assay type: cell-based, Escherichia coli; settings: additive 5 mM, 20 h, mean of two
Method: Precultures are prepared in 250 mL baffled shake flasks containing 25 mL sterile mineral medium [macronutrients in g/L: Glycerol (25), (NH4)2-citrate (1.0), Na2HPO4 2H2O (9.0), KH2PO4 (1.82), NH4Cl (1.52), MgSO4 (0.12), (NH4)2SO4 (0.6); Ampicillin ([…]); micronutrients in mg/L: Na2-EDTA (8.4), thiamine (4.5), Fe(III) citrate (12.5), Na2MoO4 2×H2O (2.5), H3BO3 (3), CoCl2 6×H2O (2.5), CuSO4 5×H2O (0.45) MnCl24×H2O (15), ZnCl2 (8) adjusted to pH 7.0]. Cultures are inoculated with 250 μL of a glycerol stock stored at −80° C. of E. coli JM109 (Promega Inc, Wallisellen, C H; Genotype: endA1, recA1, gyrA96, thi, hsdR17 (rk^−, mk^+), re/A1, supE44, Δ(lac-proAB), [F″ traD36, proAB, laql^qZΔM15]) harboring the plasmid pBAD-GFPuv (Biorad Inc., Reinach, C H; Genbank U62637.1, containing the GFPuv gene under control of the ara promoter; GFP=Green Fluorescent Protein). Precultures are incubated at 37° C. for 10-12 h.
Experimental cultures are performed in a volume of 25 mL of the above described medium in 250 mL baffled shake flasks. Stabilizers according to the invention are added to a final concentration of 5 mM as indicated from sterile stock solutions. Cultures are started by inoculating with the preculture to an optical density at 600 nm (OD600) of 0.25. Growth of the culture is monitored by reading optical density at 600 nm. Cultures are induced by adding L-arabinose to a final concentration of 0.2% (w/v) when the OD600 reaches 0.5. Samples of 1 mL are taken 6 and 20 h after induction for OD600 reading and GFP quantification. For GFP quantification 1 mL of the culture is harvested after 2-4 h and after 20 h after induction. Cells are collected by centrifugation at 16 000 g and the cell pellet is stored at −20° C. for further analysis.
as §1

P. pastoris = settings: 4-10 mM in the medium; Xiao, Appl. Microbiol. Biotechnol. (2006); cited from earlier work
[3] = Experiment 6, process time 24.75 h
[4] = Experiment 7, process time 17 h

CC1(C)CC(O)CC(C)(C)N1O [1,4-dihydroxy-2,2,6,6-tetramethylpiperidine]
mg FimH/g cell (E. coli HM125; additive 5 mM): 1.1 mg FimH/g cell
FimH (E. coli HM125; additive 5 mM): 9.1 ± 0.56 mg/L
Cell pellet (E. coli HM125; additive 5 mM): 8.22 ± 0.35 g/L
mg FimH/g cell (E. coli HM125; additive 10 mM): 1.22 mg FimH/g cell
FimH (E. coli HM125; additive 10 mM): 9.59 ± 0.49 mg/L
Cell pellet (E. coli HM125; additive 10 mM): 7.86 ± 0.25 g/L
mg FimH/g cell (E. coli HM125; additive 20 mM): 1.26 mg FimH/g cell
FimH (E. coli HM125; additive 20 mM): 10.08 ± 0.66 mg/L
Cell pellet (E. coli HM125; additive 20 mM): 7.94 ± 0.33 g/L
Growth (Final OD600) (E. coli BL21; Experiment 2, additive 5 mM, 20 h after induction, control 3.3): 3.19 OD600
GFP expression (Relative fluorescence unit*OD600^−1) (E. coli BL21; Experiment 2, additive 5 mM, 20 h after induction, control 195): 222 Relative fluorescence unit*OD600^−1
Effect on GFPuv expression and growth, in words (E. coli BL21; comment on Table 2): shows at least some effect and is not detrimental

CC1(C)CC(O)CC(C)(C)N1 [4-Hydroxy-2,2,6,6-tetramethyl-piperidine]
Optical density Value (E. coli JM109 [1]; Experiment 6, process time 24.75 h, control 10.3): 24.7
GFP expression (RFU/OD600) Value (E. coli JM109 [1]; Experiment 6, process time 24.75 h, control 1038): 5507 RFU/OD600
GFP expression Factor (E. coli JM109 [1]; [3]): 5.3
Optical density Factor (E. coli JM109 [1]; [3]): 2.39
Optical density Value (E. coli JM109 [1]; Experiment 7, process time 17 h, control 56.4): 57.1
GFP expression (RFU/OD600) Value (E. coli JM109 [1]; Experiment 7, process time 17 h, control 5765): 6438 RFU/OD600
GFP expression Factor (E. coli JM109 [1]; [4]): 1.12
Optical density Factor (E. coli JM109 [1]; [4]): 1.01
Growth (Final OD600) (E. coli JM109 [2]; Experiment 2, control 11.0): 10.9 OD600
GFP expression (Relative fluorescence unit*OD600^−1) (E. coli JM109 [2]; Experiment 2, control 1423): 1646 Relative fluorescence unit*OD600^−1

O=C1O[C@H]([C@@H](O)CO)C(O)=C1O [Ascorbic acid]
Hirudin yield and quality (P. pastoris): increased

Tris(tetramethylhydroxypiperidinol) citrate
Growth (Final OD600) (E. coli JM109 [2]; Experiment 3, control 10.4): 11.4 OD600
GFP expression (Relative fluorescence unit*OD600^−1) (E. coli JM109 [2]; Experiment 3, control 1189): 2675 Relative fluorescence unit*OD600^−1
